Where a name gives a salt, the structure may show the parent alone.
Tested on: C. albicans
Experiment: Mouse candidosis model, antimycotic in vivo efficacy
Set-up: species or system Männliche CF₁-SPF-Mäuse
Settings: mice infected i.v. with 1-3 x 10⁶ Sprosszellen von C. albicans, surviving/total animals
Description: Die erfindungsgemäßen Verbindungen wurden in den Applikationsarten i.v., s.c. und orale Gabe am Modell der Mäuse-Candidose auf ihre antimykotische in vivo-Wirksamkeit geprüft: Männliche CF₁-SPF-Mäuse wurden mit 1-3 x 10⁶ Sprosszellen von C. albicans pro Tier durch Injektion der Keimsuspension in phys. NaCl-Lösung (0,2 ml/Tier) in die Schwanzvene infiziert. Nicht behandelte Kontrolltiere entwickeln unter diesen Infektionsbedingungen eine Nierencandidose und sterben zu 95-100% der eingesetzten Tiere innerhalb 6 Tagen p.i. an dieser Infektion. Wurden infizierte Tiere täglich 2 mal, beginnend mit dem Tag der Infektion, mit den erfindungsgemäßen Verbindungen oral oder parenteral in Dosen 2 x 25 bis 2 x 50 mg/kg Körpergewicht über 2 - 5 Tage behandelt, so überleben 60-90% der Tiere die Infektion in gutem Zustand. Die C.albicans-Keimzahlen in den Nieren der infizierten und behandelten Tiere liegen am 4. Tag p.i. durchschnittlich um 2 Zehnerpotenzen unter denen von unbehandelten, infizierten Kontrolltieren. Tabelle A

COC(=O)[C@H]1OCC=C[C@H]1N [Beispiel 1, (2S,3R)-3-Amino-2,3-dihydro-6H-pyran-2-carbonsäuremethylester Hydrochlorid]
Zahl der überl. Tiere (Dosis 2 × 50 mg/kg/d, App. po): 7/10

N[C@H]1C=CCO[C@H]1C(=O)O [Beispiel 17, (2R,3S)-3-Amino-2,3-dihydro-6H-pyran-2-carbonsäure-hydrochlorid]
Zahl der überl. Tiere (Dosis 2 × 25 mg/kg/d, App. sc): 3/10

COC(=O)[C@H]1OCC=C[C@H]1NC(=O)OC(C)(C)C [Beispiel VII]
Zahl der überl. Tiere (Dosis 2 × 50 mg/kg/d, App. po): 8/10
